According to patent US6521635B1, “Inhibition of MXR transport by acridine derivatives” (priority 2000, dated 2003):

Assays:
[1] = target: T1, Pgp (S1-B1-20 cells) (Homo sapiens, UniProt P08183); assay: Calcein AM efflux assay (FACS); format: cell-based
T1 construct: The S1-B1-20 cells overexpress Pgp; endogenous in cells; host or cells: S1-B1-20 (Pgp-overexpressing subline of S1 colon carcinoma cells)
Description: The rhodamine and calcein efflux assays were performed as previously described with minor modifications (Lee et al. (1994) Mol. Pharmacol. 46: 627-638; Versantvoort et al. (1995) Int. J. Cancer 63: 855-862.) Suspensions of logarithmic phase cells were obtained from tissue culture flasks by trypsinization and transferred into round-bottom 96-well plates. […] After the efflux period, the cells were washed with DPBS and placed on ice. A FACSort flow cytometer (Becton Dickinson, San Jose, Calif.) with a 488-nm argon laser was used to analyze the samples. Rhodamine 123 or calcein fluorescence was collected after a 530 nm bandpass filter. A minimum of 10,000 events was collected per sample and the samples were gated on forward scatter versus side scatter to exclude clumps and debris; dead cells were excluded based on propidium iodide staining.
Calcein AM can be used to detect both Pgp and MRP-mediated efflux. Calcein permeates the cell in neutral form as an acetomethoxyester, calcein AM. Esterase activity cleaves the AM group leaving calcein as a fluorescent organic anion.

[2] = target: T2, MXR (S1-M1-80 cells) (Homo sapiens, UniProt Q9UNQ0, R482G); assay: Rhodamine efflux assay (flow cytometry); format: cell-based; settings: S1-M1-80 cells
T2 construct: express high levels of a mitoxantrone transporter (Miyake et al. (1999) Cancer Res.59: 8-13); endogenous in cells; host or cells: S1-M1-80 (mitoxantrone-selected subline of S1 colon carcinoma cells)
T2 sequence (Q9UNQ0 1-655 R482G): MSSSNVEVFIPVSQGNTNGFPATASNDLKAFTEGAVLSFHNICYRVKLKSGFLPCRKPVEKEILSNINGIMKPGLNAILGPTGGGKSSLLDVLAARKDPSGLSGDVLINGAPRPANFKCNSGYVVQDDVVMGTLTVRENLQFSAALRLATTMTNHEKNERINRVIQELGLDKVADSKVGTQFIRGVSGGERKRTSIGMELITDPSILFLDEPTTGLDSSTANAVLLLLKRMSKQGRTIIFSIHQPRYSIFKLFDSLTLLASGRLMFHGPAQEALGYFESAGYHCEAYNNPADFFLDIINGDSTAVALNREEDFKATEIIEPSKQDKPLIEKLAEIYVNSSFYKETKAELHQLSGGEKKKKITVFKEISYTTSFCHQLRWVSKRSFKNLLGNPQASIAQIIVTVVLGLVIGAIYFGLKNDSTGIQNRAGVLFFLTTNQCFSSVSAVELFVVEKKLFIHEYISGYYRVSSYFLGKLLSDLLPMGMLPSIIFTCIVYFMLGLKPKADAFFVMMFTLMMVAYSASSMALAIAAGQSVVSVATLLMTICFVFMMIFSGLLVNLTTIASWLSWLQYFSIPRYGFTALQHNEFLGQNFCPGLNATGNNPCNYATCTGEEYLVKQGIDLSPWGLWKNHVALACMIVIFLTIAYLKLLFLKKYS
Description: To provide confirmation, rhodamine efflux assays were performed. […] The results are depicted in FIG. 2.

T1 sequence (P08183 whole entry): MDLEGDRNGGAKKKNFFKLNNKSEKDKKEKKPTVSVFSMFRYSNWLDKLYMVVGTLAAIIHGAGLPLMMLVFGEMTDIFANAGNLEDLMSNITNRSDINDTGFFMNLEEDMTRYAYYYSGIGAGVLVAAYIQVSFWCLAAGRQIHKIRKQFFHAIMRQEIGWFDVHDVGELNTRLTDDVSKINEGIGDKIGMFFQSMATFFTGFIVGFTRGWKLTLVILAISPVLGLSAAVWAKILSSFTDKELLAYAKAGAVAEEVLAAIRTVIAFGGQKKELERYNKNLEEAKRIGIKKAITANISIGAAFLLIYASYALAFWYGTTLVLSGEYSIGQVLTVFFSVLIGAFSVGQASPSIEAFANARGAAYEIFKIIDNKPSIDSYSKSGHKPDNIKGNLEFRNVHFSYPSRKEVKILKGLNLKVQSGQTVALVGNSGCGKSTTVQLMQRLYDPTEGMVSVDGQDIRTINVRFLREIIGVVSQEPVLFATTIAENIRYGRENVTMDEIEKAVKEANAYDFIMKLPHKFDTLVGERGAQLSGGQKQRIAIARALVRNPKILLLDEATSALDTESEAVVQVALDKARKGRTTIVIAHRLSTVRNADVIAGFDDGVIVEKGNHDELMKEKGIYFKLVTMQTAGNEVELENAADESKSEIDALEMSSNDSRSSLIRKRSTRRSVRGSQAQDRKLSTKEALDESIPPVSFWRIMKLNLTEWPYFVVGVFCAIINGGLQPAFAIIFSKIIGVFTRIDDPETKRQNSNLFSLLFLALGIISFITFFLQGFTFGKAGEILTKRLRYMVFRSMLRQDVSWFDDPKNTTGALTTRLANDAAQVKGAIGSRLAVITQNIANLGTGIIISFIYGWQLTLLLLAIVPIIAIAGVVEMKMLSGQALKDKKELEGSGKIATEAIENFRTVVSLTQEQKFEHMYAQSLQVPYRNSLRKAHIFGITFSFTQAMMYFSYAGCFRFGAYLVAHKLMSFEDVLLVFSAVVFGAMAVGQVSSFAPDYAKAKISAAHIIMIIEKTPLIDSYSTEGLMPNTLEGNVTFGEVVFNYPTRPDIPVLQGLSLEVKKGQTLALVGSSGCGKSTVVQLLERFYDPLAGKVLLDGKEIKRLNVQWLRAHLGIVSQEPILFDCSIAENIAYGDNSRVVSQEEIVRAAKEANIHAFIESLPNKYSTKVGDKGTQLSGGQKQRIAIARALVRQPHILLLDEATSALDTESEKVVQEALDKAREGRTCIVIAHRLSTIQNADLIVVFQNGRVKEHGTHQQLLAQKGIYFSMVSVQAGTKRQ

block of calcein AM efflux ([1]; Pgp-expressing S1-B1-20 cells): able to block efflux | type of inhibition of Pgp ([1]; calcein-AM efflux): non-competitive inhibitor | concentration at which an effect on rhodamine efflux was observed [2]: 1 µM
Structure (SMILES): COc1cc2c(cc1OC)CN(CCc1ccc(NC(=O)c3cccc4c(=O)c5cccc(OC)c5[nH]c34)cc1)CC2 [GF120918]
